Like-named read-outs stand apart in the source and are kept apart here. Marks after values point to notes of the source that are not given here.
Columns and labels:
Type in all cases: in vivo
[1] = system: bed bugs, Cimex lectularius; test: Bed bug repellency bioassay, glass tube olfactometer arena; conditions: for pest or weed control at 25 % strength / pest or weed control at 5 % strength / pest or weed control at 1 %: Cimex lectularius; for pest or weed control at 25 % strength: beads, 20 uL; for pest or weed control at 5 % strength: 50 uL
Experimental: (§1) Per individual bioassay, 10 adult or late instar nymph bed bugs, Cimex lectularius, of mixed sex. Bed bugs sourced from wild, field populations and tested within 2 weeks of capture. Subjects were tested one time, only.
(ii) Olfactometer consisting of a glass tube. Tube ends were plugged to prevent egress of test subjects. Test substrates were placed at opposite ends of the tube. Tube Olfactometer includes a port in the centre for introduction of test subjects. Dimensions of the tube were 15.2 mm in diameter by 304.8 mm long.
Compounds were either purchased from commercial sources or synthesized using conventional synthetic organic chemistry techniques (see, for example, Examples 5 to 7). Some compounds (014, 058 and 080) were tested in duplicate (one version from commercial sources and one synthesized) and the best performance is reported in the Tables below. Of the tested compounds reported in the Tables below, the following compounds were synthesized: 006, 010, 017, 018, 040, 041 to 043, 045, 046, 048, 049, 058, 067 to 075, 079, 080 to 082, 089 and 090.
Test compounds consisted of a control and treatment. The treatment consisted of a test compound mixed as a percentage w/w in a suitable solvent. The test compound solvent itself was used as a control. Solvents used were hexane, hexane:methanol, or dichloromethane:methanol.
(i) Gauze cut to a standard size and folded upon itself to provide harbourage for test subjects.
(iii) Absorbent polymer “aroma” beads that were given sufficient time to fully absorb test compounds and control solvents.
In the case of gauze and filter paper substrates, control solvents and test mixtures of known concentrations and volumes were dispensed directly onto substrates using a pipette. For polymer beads, beads were mixed w/w with solvent or test compound in a small glass jar. The jars were occasionally agitated to facilitate soaking of the beads.
(§2) Immediately after the substrates were infused with test compounds and control solvents, test subjects were introduced to the centre of the selected observation arena. […] Only subjects that were in close contact with the treatment or control substrates were recorded. Subjects elsewhere in the arena were not included in repellency calculations. Percentage repellency was calculated based on a modification of Abbott's formula to account for negative repellency (attraction). Specifically: IF(C>=T,(C−T)/C*100,(T−C)/T*−100)
(§3) where C is number of test subjects in contact with control substrate and T is number of test subjects in contact with treatment substrate.
All average repellency results reported in the table are based on 3 replicates for each reported trial, with each trial involving at least 3 observation periods. The observation periods were short-term (30 min), medium-term (1-2 hours), and long-term (24-48 hours). The “overall average” reported in the table represents the average for 3 replicates for 3 observation periods. […]
To determine whether compounds could be combined in the repellent compositions, compounds 14 and 35 were each tested at a concentration of 5% (w/w), and as a combination comprising each compound at a concentration of 2.5% (w/w). The formulations were tested as described in Example 1 using the olfactometer configuration.

[2] = system: bed bugs, Cimex lectularius; test: Bed bug repellency bioassay, box arena (formulations of compound 35)
Experimental: as §1
(iii) Box arenas consisted of covered plastic “Rubbermaid” box where the cover was modified to fit a mesh screen to allow movement of air between the test arena interior and outside. Test substrates were placed at opposite ends of the box arena. Dimensions of the box were 304.8 mm long by 200 mm wide by 80 mm in depth.
as §2, §3
Compound 35 was formulated as a spray formulation in which the compound was dissolved in isopropyl alcohol (IPA) at concentrations of 1%, 2.5% and 5%.
In addition, compound 35 was tested on plastic slow-release beads. The beads were cured with either: 1) 20% (w/w) neat compound 35, or 2) 20% (w/w) of a 1:1 mixture of compound 35 and wintergreen oil (methyl salicylate).
The formulations were tested as described in Example 1 using the box configuration.

[3] = system: bed bugs, Cimex lectularius; test: Bed bug repellency bioassay, Petri dish arena; conditions: filter paper, 100 uL, 1% v/v in hexane, average of 3 replicates x 3 observation periods
Description: (i) Petri Dish arenas consisted of a standard plastic, covered Petri Dish where test substrates were placed at opposite sides of the dish. Dimensions of the dish were 101.6 mm in diameter by 25.4 mm in depth.
(ii) Filter paper of standard size and folded as per (i).
In the case of gauze and filter paper substrates, control solvents and test mixtures of known concentrations and volumes were dispensed directly onto substrates using a pipette. […]
Immediately after the substrates were infused with test compounds and control solvents, test subjects were introduced to the centre of the selected observation arena. […] Only subjects that were in close contact with the treatment or control substrates were recorded. […] Percentage repellency was calculated based on a modification of Abbott's formula to account for negative repellency (attraction). […]

[4] = 25% w/w in hexane, average of 3 replicates x 3 observation periods, read-out: % Repellency (% R), Overall Average
[5] = gauze, 5% w/v in hexane, average of 3 replicates x 3 observation periods, read-out: % Repellency (% R), Overall Average
[6] = gauze, 10 uL, 1% v/v in hexane, average of 3 replicates x 3 observation periods, read-out: % Repellency (% R), Overall Average

## CCC(=O)OCc1ccco1 [Compound 035, Furfuryl propionate]
[1]; [4]
  pest or weed control at 25 % strength: > 80%
[1]; Example 2, single compound at 5% (w/w)
  % R (Overall Average): 95%
[2]; IPA spray, 1% (w/w) compound 35 in isopropyl alcohol
  % R (Overall Average): 92%
[2]; IPA spray, 2.5% (w/w) compound 35 in isopropyl alcohol
  % R (Overall Average): 94%
[2]; IPA spray, 5% (w/w) compound 35 in isopropyl alcohol
  % R (Overall Average): 100%
[2]; both formulation formats (IPA spray, plastic beads), all concentrations tested
  repellency of formulations (in words): excellent repellency
[2]; plastic slow-release beads cured with 20% (w/w) neat compound 35
  % R (Overall Average): 100%
[2]; plastic slow-release beads, 10% compound 35 + 10% wintergreen oil (methyl salicylate)
  % R (Overall Average): 100%

## CCOC(=O)CCC(=O)O [Compound 055, Mono-ethyl succinate]
[3]
  % Repellency (% R), Overall Average: 73%

## CCCCCCCCCCC(C)=O [Compound 061, 2-dodecanone]
[1]; [5]
  pest or weed control at 5 % strength: > 80%

## CCC(=O)CC [Compound 062, 3-pentanone]
[1]; [5]
  pest or weed control at 5 % strength: 10%
[1]; gauze, 5% w/v in hexane, best single observation (one repetition, one time), read-out: % Repellency, At least One Time >50%
  pest or weed control at 5 % strength: 89%
[1]; observation period T1, gauze, 5% w/v in hexane, read-out: % Repellency T1 (average of 3 repetitions)
  pest or weed control at 5 % strength: -11%
[1]; observation period T2, gauze, 5% w/v in hexane, read-out: % Repellency T2 (average of 3 repetitions)
  pest or weed control at 5 % strength: -3%
[1]; observation period T3, gauze, 5% w/v in hexane, read-out: % Repellency T3 (average of 3 repetitions)
  pest or weed control at 5 % strength: 43%

## CCC(=O)/C=C/C(=O)CC [Compound 067, (E)-oct-4-ene-3,6-dione]
[1]; gauze, 5% w/v in hexane:methanol (1:1), average of 3 replicates x 3 observation periods, read-out: % Repellency (% R), Overall Average
  pest or weed control at 5 % strength: > 80%

## CCOC(=O)/C=C/C(=O)CC [Compound 068, (E)-ethyl 4-oxohex-2-enoate]
[1]; [6]
  pest or weed control at 1 %: 43%
[1]; observation period T1, gauze, 10 uL, 1% v/v in hexane, read-out: % Repellency T1 (average of 3 repetitions)
  pest or weed control at 1 %: 30%
[1]; observation period T2, gauze, 10 uL, 1% v/v in hexane, read-out: % Repellency T2 (average of 3 repetitions)
  pest or weed control at 1 %: 32%
[1]; observation period T3, gauze, 10 uL, 1% v/v in hexane, read-out: % Repellency T3 (average of 3 repetitions)
  pest or weed control at 1 %: 65%
[1]; gauze, 10 uL, 1% v/v in hexane, best average over 3 replicates for a single time period
  % Repellency, At least One Average >50%: 65%

## CC(O)c1ccco1 (centres unmarked) [Compound 069, 1-(furan-2-yl)ethanol]
[1]; [4]
  pest or weed control at 25 % strength: > 80%

## CCC(=O)/C=C/C(=O)O [Compound 070, (E)-4-oxohex-2-enoic acid]
[1]; gauze, 10 uL, 1% v/v in hexane:methanol (1:1), average of 3 replicates x 3 observation periods, read-out: % Repellency (% R), Overall Average
  pest or weed control at 1 %: 74%

## CC(C)C(O)c1ccco1 (centres unmarked) [Compound 071, 1-(furan-2-yl)-2-methylpropan-1-ol]
[1]; [6]
  pest or weed control at 1 %: 57%

## CCC(C)C(O)c1ccco1 (centres unmarked) [Compound 072]
[1]; [5]
  pest or weed control at 5 % strength: 79%

## CCCCC(O)c1ccco1 (centres unmarked) [Compound 073, 1-(furan-2-yl) pentan-1-ol]
[1]; [5]
  pest or weed control at 5 % strength: > 80%

## CCC(=O)/C=C(\C)C(C)=O [Compound 074, (E)-3-methylhept-3-ene-2,5-dione]
[1]; 25% w/w in dichloromethane:methanol (1:1), average of 3 replicates x 3 observation periods, read-out: % Repellency (% R), Overall Average
  pest or weed control at 25 % strength: > 80%

## CCC(O)c1ccco1 (centres unmarked) [Compound 075, 1-(furan-2-yl) propan-1-ol]
[1]; [6]
  pest or weed control at 1 %: 79%

## CCOC(=O)CCC(C)=O [Compound 076, ethyl levulinate]
[1]; [5]
  pest or weed control at 5 % strength: 69%

## C=CC(O)c1ccco1 (centres unmarked) [Compound 078, 2-Furanmethanol, a-ethenyl-]
[1]; [4]
  pest or weed control at 25 % strength: > 80%

## CCOC(C#CC(=O)CC)OCC [Compound 079, 6,6-diethoxyhex-4-yn-3-one]
[1]; [5]
  pest or weed control at 5 % strength: > 80%

## CC(=O)c1ccco1 [Compound 080, 2-Furyl methyl ketone]
[1]; [5]
  pest or weed control at 5 % strength: > 80%

## CC(C)C(=O)c1ccco1 [Compound 082, 1-(2-furyl)-2-methyl-propan-1-one]
[1]; [4]
  pest or weed control at 25 % strength: > 80%

## CC(=O)OCc1ccco1 [Compound 084, Furfuryl acetate]
[1]; [4]
  pest or weed control at 25 % strength: 61%

## CCOC(=O)c1ccco1 [Compound 085, Ethyl 2-furoate]
[1]; [4]
  pest or weed control at 25 % strength: 73%

## CCCC(=O)c1ccco1 [Compound 086, 2-butyrylfuran]
[1]; 25% w/w in hexane:methanol (1:1), average of 3 replicates x 3 observation periods, read-out: % Repellency (% R), Overall Average
  pest or weed control at 25 % strength: > 80%

## CCC(C)C(=O)c1ccco1 (centres unmarked) [Compound 089, 1-furan-2-yl-2-methylbutan-1-one]
[1]; [5]
  pest or weed control at 5 % strength: > 80%

## CCCCC(=O)c1ccco1 [Compound 090, 1-Pentanone, 1-(2-furanyl)-]
[1]; [5]
  pest or weed control at 5 % strength: > 80%
